In publication PMC9960331, “Antioxidant and Anticancer Potential of the New Cu(II) Complexes Bearing Imine-Phenolate Ligands with Pendant Amine N-Donor Groups” (Pharmaceutics, 2023):
Like-named read-outs stand apart in the source and are kept apart here.

Tests used:
[1] = test system: MCF-7 (breast adenocarcinoma); experiment: MTT cell viability assay, MCF-7; assay type: cell-based, human; settings: for Concentration at which cytotoxicity starts, MCF-7: 24 h and 72 h; for IC50: Homo sapiens
Protocol: (§1) Chinese hamster lung fibroblast (V79) cells and human cell lines [MCF-7 (breast adenocarcinoma), SW620 (colorectal adenocarcinoma), and MRC-5 (normal lung fibroblast)] were obtained from the Rio de Janeiro Cell Bank (Rio de Janeiro, RJ, Brazil). The cell lines were grown in DMEM supplemented with 10% heat-inactivated FBS or RPMI-1640 supplemented with 20% FBS, 0.2 mg/mL L-glutamine, 100 IU/mL penicillin, and 100 µg/mL streptomycin. Cells were kept in tissue culture flasks at 37 °C in a humidified atmosphere containing 5% CO2 and were harvested by treatment with 0.15% trypsin −0.08% EDTA in PBS.
(§2) The cytotoxic potential of all compounds was measured by the methylthiazol tetrazolium (MTT) assay in Chinese hamster lung fibroblasts and human cell lines. Cell lines were cultured in a 96-well plate (1 × 10^4 cells/well) in complete media. V79 cells were treated for 24 h with all compounds at concentrations of 1, 10, 50 and100 µM. […] All compounds were dissolved in DMSO and added to the medium to reach the desired concentrations (0.1% of DMSO). The activity of this solvent alone was measured by a blank sample solution containing the same amount of DMSO. After the exposure period, the culture media were replaced with the addition of 100 µL serum-free media containing the 3-(4,5-dimethylthiazol-2-yl)-2,5-diphenyltetrazolium bromide) (MTT) dye (1 mg/mL), and incubated for 3 h at 37 °C After incubation, the supernatant was removed, the residual purple formazan product was solubilized in 150 µL DMSO, and its absorbance was measured at 570 nm. The assay was performed in triplicate.

[2] = test system: SW620 (colorectal adenocarcinoma); experiment: MTT cell viability assay, SW620; assay type: cell-based, human; settings: for Concentration at which cytotoxicity starts, SW620: 24 h and 72 h; for IC50: Homo sapiens
Protocol: as §1, §2

[3] = test system: MRC-5 (normal lung fibroblast); experiment: MTT cell viability assay, MRC-5; assay type: cell-based, human; settings: for Concentration at which cytotoxicity starts, MRC-5: 24 h and 72 h; for IC50: Homo sapiens
Protocol: as §1, §2

[4] = test system: SW620; experiment: Clonogenic assay, SW620; assay type: cell-based, human; settings: 72 h treatment
Protocol: (§3) MCF-7, MRC-5, and SW620 human cell lines were seeded in 6-well plates at a density of 300 cells per well containing 1 mL of medium. […] The cell culture medium was changed to a new medium every 2 days. Cells were washed twice with PBS and fixed with methanol for 30 min, followed by staining with 0.5% crystal violet. The assay was performed in triplicate. Colonies were manually counted, and colony survival was presented as a percentage relative to the respective negative control.

[5] = test system: MCF-7; experiment: Alkaline comet assay, MCF-7; assay type: cell-based, human; settings: for Damage Índex (DI) ± SD, MCF-7: 3 h
Protocol: (§4) For genotoxicity assays, 1.0 × 10^4 cells were seeded on twenty-four-well plates and incubated for 24 h. […] Each dose was evaluated by three independent experiments. The alkaline comet assay was performed as described by Singh et al.. Following treatment, cells were trypsinized and resuspended in a complete medium. Slides were prepared with 20 μL of cellular suspension and were dissolved in 0.75% low melting-point agarose. Slides were immersed in cold lysis buffer (2.5 M NaCl, 100 mM EDTA, 10 mM Tris, 1% Triton X-100, 10% DMSO, pH 10) for at least 1 h. Slides were placed in an electrophoresis chamber with cold alkaline buffer (300 mM NaOH and 1 mM de EDTA, pH > 13) to unwind the DNA. Electrophoresis was performed at 0.7 V/cm, 300 mA for 30 min at 4 °C. Slides were then neutralized with Tris–HCl buffer (pH 7.5) for 15 min and stored at room temperature. Slides were stained with silver staining protocol. The gels were then left to dry overnight at room temperature before being analyzed. From two replicate slides, 100 cells were selected and analyzed for DNA migration. Migration of DNA fragments was determined according to comet class as described by Azqueta: class 0, intact nuclei, without tail; class 1, nuclei with tail less than the diameter of the nucleus; class 2, tail size varying between one and two times the diameter of the nucleus; class 3, tail size varying between two and three times the diameter of the nucleus; and class 4, tail size more than three times the diameter of the nucleus but with the head and tail of the comet still distinguishable. The DI ranges from 0 (100 completely undamaged cells × 0) to 400 (100 cells with maximum damage × 4).

[6] = test system: MCF-7; experiment: Clonogenic assay, MCF-7; assay type: cell-based, human; settings: 72 h treatment
Protocol: as §3

[7] = DPPH radical scavenging assay; assay type: biochemical; settings: for Antioxidant ability in the DPPH radical capture assay: test doses 1-200 µM
Text: (§5) Both colorimetric assays are being used to estimate the radical scavenging capacity of organic and inorganic compounds [71, 72]. When DPPH reacts with an antioxidant compound, its free radical property is lost, and its color changes from violet to yellow. In the presence of an antioxidant, the ABTS radical, which has a strong absorption band at 734 nm, will be scavenged, and the reaction mixture will turn from blue to green. The results are expressed as a percentage of inhibition of DPPH radical or ABTS^+ radical when compared to samples from the control group (DMSO) without the compounds/standard (0% of radical inhibition). The experiment was repeated three times at each concentration.
DPPH assay: To determine the 1,1-diphenylpicrylhydrazyl (DPPH) radical scavenging activity, different concentrations of compounds (1, 5, 10, 50, 100, and 200 μM) were mixed with a methanolic solution of 0.1 mM DPPH radical for 30 min at 30 °C in the dark. The absorbance of the mixture was measured spectrophotometrically at 517 nm. The coloration change of the DPPH ethanolic solution from deep purple to yellow indicates the presence of antioxidants and then the free radical scavenging effect of these compounds. The ascorbic acid at 1, 10, 100, and 200 µM was used as a positive control to determine the maximal decrease in the DPPH absorbance. The percentage of DPPH radical scavenging activity was calculated by the following equation:% DPPH radical scavenging activity = {(A0 − A1)/A0} × 100 where A0 is the absorbance of the control, and A1 is the absorbance of the compounds/standard.

[8] = ABTS radical cation scavenging assay; assay type: biochemical
Text: as §5
The radical cation ABTS was previously generated with sodium persulfate in the presence of potassium phosphate buffer. Briefly, the ABTS solution diluted in a phosphate buffer saline pH 7.4 was mixed with an aliquot of the compound for 30 min at room temperature in the dark. The ascorbic acid at 1, 10, 100, and 200 µM was used as a positive control to determine the maximal decrease in the ABTS^+ absorbance. The color reaction was measured at 730 nm and the results were expressed as a percentage (%) of the control. The ABTS radical scavenging capacity was calculated by the following equation: % ABTS^+ radical scavenging activity = {(A0 − A1)/A0} × 100 where A0 indicates the absorbance of the blank and A1 indicates the absorbance in the presence of the test sample.

[9] = test system: V79 cells; experiment: MTT cell viability assay, V79 cells; assay type: cell-based, Chinese hamster; settings: Cricetulus griseus, V79, 24 h; read-out: IC50 V79 cell line
Protocol: as §1
The cytotoxic potential of all compounds was measured by the methylthiazol tetrazolium (MTT) assay in Chinese hamster lung fibroblasts and human cell lines. Cell lines were cultured in a 96-well plate (1 × 10^4 cells/well) in complete media. […] The activity of this solvent alone was measured by a blank sample solution containing the same amount of DMSO. After the exposure period, the culture media were replaced with the addition of 100 µL serum-free media containing the 3-(4,5-dimethylthiazol-2-yl)-2,5-diphenyltetrazolium bromide) (MTT) dye (1 mg/mL), and incubated for 3 h at 37 °C After incubation, the supernatant was removed, the residual purple formazan product was solubilized in 150 µL DMSO, and its absorbance was measured at 570 nm. […]

[10] = test system: SW620; experiment: Alkaline comet assay, SW620; assay type: cell-based, human; settings: for Damage Índex (DI) ± SD, SW620: 3 h
Protocol: as §4

[11] = test system: MRC-5; experiment: Alkaline comet assay, MRC-5; assay type: cell-based, human; settings: for Damage Índex (DI) ± SD, MRC-5: 3 h
Protocol: as §4

[12] = test system: MRC-5; experiment: Clonogenic assay, MRC-5; assay type: cell-based, human; settings: 72 h treatment; general statement covers MCF-7, SW620 and MRC-5
Protocol: as §3

[13] = test system: SW620 (colorectal adenocarcinoma); settings: 72 h; cited from earlier work
[14] = test system: MCF-7 (breast adenocarcinoma); parameters: method as in PMID 36592511; settings: 72 h; cited from earlier work

| SMILES | Concentration at which cytotoxicity starts, MCF-7 [1] [µM] | IC50 ([1]; MCF7, 24 h) [µM] | IC50 ([1]; MCF7, 72 h) [µM] | Concentration at which cytotoxicity starts, SW620 [2] [µM] | IC50 ([2]; SW-620, 24 h) [µM] | IC50 ([2]; SW-620, 72 h) [µM] | Concentration at which cytotoxicity starts, MRC-5 [3] [µM] | IC50 ([3]; MRC5, 24 h) [µM] | IC50 ([3]; MRC5, 72 h) [µM] | Inhibition of colony survival, SW620 compared with MRC-5 [4] | Concentrations that increase damage index (DI), MCF-7 [5] | Damage Índex (DI) ± SD, MCF-7 ([5]; 1 μM) | Damage Índex (DI) ± SD, MCF-7 ([5]; 10 μM) | Damage Índex (DI) ± SD, MCF-7 ([5]; 50 μM) | Damage Índex (DI) ± SD, MCF-7 ([5]; 100 μM) | Antioxidant ability in the DPPH radical capture assay [7] | IC50 [9] [µM] | Concentrations that increase damage index (DI), SW620 [10] | Damage Índex (DI) ± SD, SW620 ([10]; 1 μM) | Damage Índex (DI) ± SD, SW620 ([10]; 10 μM) | also measured |
| --- | --- | --- | --- | --- | --- | --- | --- | --- | --- | --- | --- | --- | --- | --- | --- | --- | --- | --- | --- | --- | --- |
| CC(C)(C)c1cc(/C=N/CCNc2ccccc2)c(O)c(C(C)(C)C)c1 [1a] | 10 | 30.5 ± 4.4 | 28.6 | 10 | 27.6 ± 1.2 | 16.4 | 10 | 14.7 ± 1.1 | 17.1 | not selective | 10 to 100 µM | 14.7 ± 3.2 | 34.3 ± 4.2 | 100.7 ± 2.9 | 154.7 ± 7.2 | inability to be antioxidants | 23 | 50 µM and 100 µM | 16.7 ± 2.5 | 21.3 ± 6.7 | Inhibition of colony survival, MCF-7 compared with MRC-5 [6]: not selective; Concentration from which ABTS+ radical scavenging activity is present [8]: 5 µM; Imax (% of maximal inhibition), ABTS+ [8]: up to 87%; IC50 ([8]; concentration to decrease 50% of ABTS+ radical formation): 7.5 ± 2.2 µM; Damage Índex (DI) ± SD, SW620 ([10]; 50 μM): 107.0 ± 7.2; Damage Índex (DI) ± SD, SW620 ([10]; 100 μM): 212.3 ± 2.5; Concentrations that increase damage index (DI), MRC-5 [11]: 10 to 100 µM; Damage Índex (DI) ± SD, MRC-5 ([11]; 1 μM): 19.3 ± 3.9; Damage Índex (DI) ± SD, MRC-5 ([11]; 10 μM): 39.7 ± 9.5; Damage Índex (DI) ± SD, MRC-5 ([11]; 50 μM): 121.3 ± 10.0; Damage Índex (DI) ± SD, MRC-5 ([11]; 100 μM): 200.3 ± 22.0 |
| CC(C)(C)c1cc(/C=N/c2cccc3cccnc23)c(O)c(C(C)(C)C)c1 [1b, [6-(C9H6N-8-(N=CH))-2,4-di-tert-butyl-(OHC6H2)]] | 10 | 111 ± 9.5 | 44.5 | 1 | 41.9 ± 9.7 | 10.5 | 10 | 63.4 ± 5.5 | 15.5 | more potent inhibitory effect on the SW620 cells than on MRC-5 cells | 50 µM and 100 µM | 16.0 ± 4.0 | 22.3 ± 6.4 | 52.7 ± 9.5 | 102.0 ± 6.0 | inability to be antioxidants | 69 ± 9 | ≥ 10 µM | 10.0 ± 1.0 | 34.7 ± 7.4 | Inhibition of cell proliferation at the highest treatment concentrations tested (colony survival) [12]: not statistically significant; ABTS+ radical scavenging activity ([8]; doses 1-200 µM): inactive at all doses; Damage Índex (DI) ± SD, SW620 ([10]; 50 μM): 120.0 ± 5.3; Damage Índex (DI) ± SD, SW620 ([10]; 100 μM): 236.0 ± 8.2; Concentrations that increase damage index (DI), MRC-5 [11]: 50 µM and 100 µM; Damage Índex (DI) ± SD, MRC-5 ([11]; 1 μM): 16.3 ± 2.5; Damage Índex (DI) ± SD, MRC-5 ([11]; 10 μM): 20.0 ± 5.2; Damage Índex (DI) ± SD, MRC-5 ([11]; 50 μM): 101.0 ± 5.0; Damage Índex (DI) ± SD, MRC-5 ([11]; 100 μM): 135.0 ± 6.2 |
| O=c1[nH]cc(F)c(=O)[nH]1 [5-Fluorouracil] |  |  |  |  |  |  |  |  |  |  |  |  |  |  |  |  |  |  |  |  | IC50 [13]: 4 µM |
| O=C1O[C@H]([C@@H](O)CO)C(O)=C1O [Ascorbic acid, ascorbic acid, reference compound] |  |  |  |  |  |  |  |  |  |  |  |  |  |  |  |  |  |  |  |  | IC50 ([7]; concentration to decrease 50% of DPPH radical formation): 17 µM |
| N.N.[Cl][Pt][Cl] [cisplatin] |  |  |  |  |  |  |  |  |  |  |  |  |  |  |  |  |  |  |  |  | IC50 [14]: 12.7 ± 0.1 µM |
